Laboratory results taken from article PMC5955599, “The HTLV-1 gp21 fusion peptide inhibits antigen specific T-cell activation in-vitro and in mice” (PLoS Pathogens, 2018).

Legend:
[1] = system: MOG35-55–antigen specific T-cells; experiment: Cytokine secretion from activated antigen-specific T-cells (ELISA); format: cell-based, mouse (C57Bl/6J); conditions: peptide at 10μM, APC-activated T-cells, media 24 hours following activation, n = 12
Protocol: Fig 2 Modulation of Th1/Th2 gene expression and cytokine secretion from activated T-cells by the HTLV FP. MOG35-55–antigen specific T-cells were activated by irradiated MOG35-55 presenting APCs, in the presence of the HTLV FP at 10μM. (A) Total RNA was isolated 24 hours following activation and mRNA expression levels were determined by qRT-PCR. The values of each gene were normalized to Rpl13a as a housekeeping control. The HTLV FP reduces mRNA expression of Th1 specific genes (IFNG, LTA, and STAT4) and elevates mRNA expression of Th2 specific genes (IL4 and IL10). The data is presented as arbitrary units. n≥3. (B) Media was collected 24 hours following activation and secretion of cytokines was measured by ELISA assay. IFN-γ secretion is inhibited, IL4 secretion is elevated and TNFα is not affected by the HTLV FP. n = 12. One-way ANOVA was used for statistical analysis. *P<0.05; **P<0.01;***P<0.001.
Antigen-specific T-cells were plated onto round 96-well plates in medium containing RPMI-1640 supplemented with 2.5% fetal calf serum (FCS), 100 U/ml penicillin, 100 μg/ml streptomycin, 50μM β-mercaptoethanol, and 2mM L-glutamine. […] In addition, the relevant peptide was added. Each treatment was made with quadruplicate. Analysis of IFN-γ, IL-4 and TNFα secretion was performed by ELISA 24 hours after cell activation according to standard protocols from R&D systems.

[2] = system: primary mouse bone marrow derived macrophages (BMDM); experiment: Cytokine secretion from TLR-ligand stimulated BM-derived macrophages (ELISA); format: cell-based, mouse (C57Bl/6J); conditions: HTLV FP at 10μM, stimulated by LTA, LPS or PAM3CSK4 (1 μg/ml), n = 3
Protocol: Mouse Femora and tibiae BM cells were isolated from C57Bl/6J mice and cultured in RPMI medium containing FBS (10%), L-glutamine (1%), sodium pyruvate (1%), Pen-strep (1%), and 10 ng/ml recombinant CSF-1 (Peprotech). At day 3, half the medium was replaced, and on day 7, cells were used for in vitro assay, in which 2*10^5 cells were plated per well in a 24-well plate.
Mouse Femora and tibiae BM cells were collected and cultured in RPMI medium containing FBS (10%), L-glutamine (1%), sodium pyruvate (1%), Pen-strep (1%), and 10 ng/ml recombinant CSF-1 (Peprotech). On day 7, cells were stimulated by either (i) LTA, (ii) LPS, or (iii) PAM3CSK4 (1 μg/ml), in the presence of the HTLV FP at 10μM. Media was collected either 5 hours following activation (for TNF-α detection) or 22 hour following activation (for IL-6 detection) and secretion levels were determined according to standard protocols from R&D systems.
Supplementary file ppat.1007044.s002.tif: S2 Fig BM-derived macrophages activation is not affected by HTLV FP treatment. […] Media was collected either 5 hours following activation (for TNF-α detection) or 22 hour following activation (for IL-6 detection) and cytokines secretion was measured by ELISA assay. […]

[3] = system: mouse MOG35-55–antigen specific T cells; conditions: XTT, n = 4
Protocol: Aliquots of 10^4 cells were distributed onto a 96-well plate in the presence of 1.25–40μM of the relevant peptides for 16 or 72 hours. Following incubation, XTT reaction solution (benzene sulfonic acid hydrate and N-methyl dibenzopyrazine methyl sulfate, mixed in a proportion of 50:1), was added for 2 hours. Optical density was read at 450-nm wavelength. The percentage of toxicity was calculated relative to the control, 10^4 cells in medium with no peptide added.
Viability of cells was analyzed by an XTT cytotoxicity assay. MOG35-55–antigen specific T cells were incubated with peptides at concentrations ranging from 40μM to 2.5μM in serial dilutions (from black to light gray respectively). (A) Viability was analyzed following overnight (16 hours) incubation with peptides. (B) Viability was analyzed following 72 hour incubation with the peptide. The data is presented as mean percent viability. Error bars represent ± S.E.M. n = 4. (TIF) Click here for additional data file.

[4] = Circular dichroism spectroscopy with CDNN secondary structure analysis; format: physicochemical; conditions: 25μM peptide in 5mM HEPES buffer with 1% LPC
Protocol: Fig 6 Detection of the immune modulatory region within the HTLV FP. (A) Sequences of shorter peptides derived from the full length HTLV FP. (B) MOG35-55–antigen specific T-cells were activated by APCs in the presence of HTLV FP derived peptides at 10μM and proliferative responses were assessed as described above. […] The data is presented as mean inhibition of proliferation. n = 12. (C) MOG35-55–antigen specific T cells were activated by either (i) irradiated MOG35-55 presenting APCs (black), (ii) antibodies against CD3 and CD28 (white), or (iii) PMA and Ionomycin (gray) in the presence of HTLV FP5-13 and HIV FP5-13 at 10μM. Proliferative responses were assessed as described above. The HTLV FP inhibits T-cell proliferation induced either through the TCR or downstream from the TCR with equal potencies. The data is presented as mean inhibition of proliferation. n = 12. […] CD spectra were measured at 25μM in 5mM HEPES buffer containing 1% lyso-phosphatidylcholine (LPC). […] (E) MOG35-55–antigen specific T-cells were activated by APCs in the presence of HTLV FP5-13 D/L enantiomers at 10μM and proliferative responses were assessed as described above. Both HTLV FP5-13 enantiomers inhibit T-cells proliferation with equal potencies. The data is presented as mean inhibition of proliferation. n = 12. One-way ANOVA was used for statistical analysis. *P<0.05;**P<0.01;***P<0.001.

[5] = CD 190–260 nm, CDNN, relative amount of structure out of 100%

AVPVAVWLVSALAMGAGVAGGITGSMSLASGKS [HTLV FP, gp21 fusion peptide of HTLV-1, MT-2 isolate]
IFN-γ secretion [1]: inhibited both T-cell proliferation and IFN-γ secretion with higher potency than the HTLV Scr
IL4 secretion [1]: elevated IL4 secretion
TNF-α secretion [1]: had no effect on TNF-α secretion
TNFα secretion from BMDM ([2]; media 5 hours following activation): had no effect on cytokine secretion
IL6 secretion from BMDM ([2]; media 22 hour following activation): had no effect on cytokine secretion
toxicity to mouse T-cells, 72 hours ([3]; peptide 40μM to 2.5μM, 72 hour incubation): not toxic up to 4-fold higher than the concentrations used in this study
toxicity to mouse T-cells, 16 hours ([3]; peptides 40μM to 2.5μM, overnight (16 hours) incubation): not toxic up to 4-fold higher than the concentrations used in this study
Antiparallel β-Sheet [4, 5]: 2.1%
Parallel β-Sheet [4, 5]: 3.3%
Random-coil [4, 5]: 13%
α-Helix [4, 5]: 68.6%
β-turn [4, 5]: 13%
secondary structure in a membrane mimetic environment ([4]; CD): exhibited an α-helical structure
